Assay results from patent US12122761B2, “2-azaspiro[3.4]octane derivatives as M4 agonists” (NOVARTIS AG, priority 2019, dated 2024).

Assays:
Assay type in all cases: cell-based
[1] = molecular target: T1, human cloned CHRM3 receptor (M3_CHO cells) (Homo sapiens, UniProt P20309); test: CHRM3 Ca++ Flux Assay (agonist mode, FDSS 7000EX); conditions: for M3 FDSS PA: Percent Activity measured to EC100 of Carbachol; for EC50: agonist mode, geometric mean if tested more than once, read-out: M3 FDSS EC50
T1 construct: expressed in transfected cells; host or cells: CHO-K1
Method in brief: (§1)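 Fluorescent intracellular Ca++ signal, recorded for 3 min, served as read-out for CHO-K1 cells stably carrying human M3 or M5 receptor. Triplicate 11-point dose responses were averaged and fitted to a four-parameter model, with percent activity referenced to the carbachol EC100.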

[2] = molecular target: T2, human cloned CHRM5 receptor (M5_CHO) (Homo sapiens, UniProt P08912); test: CHRM5 Ca++ Flux Assay (agonist mode, FDSS 7000EX); conditions: for M5 FDSS PA: Percent Activity measured to EC100 of Carbachol; for EC50: agonist mode, geometric mean if tested more than once, read-out: M5 FDSS EC50
T2 construct: expressed in transfected cells; host or cells: CHO (M5_CHO)
T2 sequence (P08912 1-532): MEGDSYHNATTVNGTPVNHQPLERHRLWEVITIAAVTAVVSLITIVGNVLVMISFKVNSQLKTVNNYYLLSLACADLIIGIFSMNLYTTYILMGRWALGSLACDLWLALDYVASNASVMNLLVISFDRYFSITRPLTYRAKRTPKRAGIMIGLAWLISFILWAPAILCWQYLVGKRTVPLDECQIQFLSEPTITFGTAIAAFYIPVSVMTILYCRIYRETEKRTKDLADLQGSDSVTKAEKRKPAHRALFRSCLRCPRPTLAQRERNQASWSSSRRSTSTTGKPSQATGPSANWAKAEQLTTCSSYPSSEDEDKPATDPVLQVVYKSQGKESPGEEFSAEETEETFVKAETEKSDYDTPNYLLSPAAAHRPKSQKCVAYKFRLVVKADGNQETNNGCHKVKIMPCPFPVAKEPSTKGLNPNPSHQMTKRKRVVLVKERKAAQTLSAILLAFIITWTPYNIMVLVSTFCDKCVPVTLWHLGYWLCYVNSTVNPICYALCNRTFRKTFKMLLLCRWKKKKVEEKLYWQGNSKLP
Method in brief: as §1

[3] = molecular target: T3, human cloned CHRM2 receptor (M2_CHO cells) (Homo sapiens, UniProt P08172); test: CHRM2 Ca++ Flux Assay (agonist mode, FDSS 7000EX); conditions: for M2 FDSS PA: Percent Activity measured to EC100 of Carbachol; for EC50: agonist mode, geometric mean if tested more than once, read-out: M2 FDSS EC50
T3 construct: expressed in transfected cells; host or cells: CHO-K1
T3 sequence (P08172 1-466): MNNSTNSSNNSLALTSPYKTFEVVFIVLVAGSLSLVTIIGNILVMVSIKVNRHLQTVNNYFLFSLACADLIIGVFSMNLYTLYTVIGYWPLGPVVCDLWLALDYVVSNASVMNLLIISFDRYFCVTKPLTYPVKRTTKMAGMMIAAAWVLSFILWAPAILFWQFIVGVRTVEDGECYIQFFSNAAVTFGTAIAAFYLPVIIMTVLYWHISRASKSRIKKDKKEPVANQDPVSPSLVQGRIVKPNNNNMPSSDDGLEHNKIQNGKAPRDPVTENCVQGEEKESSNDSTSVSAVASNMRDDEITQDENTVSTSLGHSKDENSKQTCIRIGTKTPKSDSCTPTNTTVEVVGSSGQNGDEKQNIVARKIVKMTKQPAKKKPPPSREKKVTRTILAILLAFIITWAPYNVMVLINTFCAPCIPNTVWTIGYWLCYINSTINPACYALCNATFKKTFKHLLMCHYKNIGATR
Method in brief: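 Agonist-mode Ca++ flux in CHO-K1 cells stably expressing human CHRM2, dye-loaded, then held 60 min at room temperature in buffer with 20 μM ATP before compound addition; traces read over 3 minutes. Four-parameter fit of triplicate wells; percent activity relative to Carbachol EC100.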

T1 sequence (P20309 whole entry): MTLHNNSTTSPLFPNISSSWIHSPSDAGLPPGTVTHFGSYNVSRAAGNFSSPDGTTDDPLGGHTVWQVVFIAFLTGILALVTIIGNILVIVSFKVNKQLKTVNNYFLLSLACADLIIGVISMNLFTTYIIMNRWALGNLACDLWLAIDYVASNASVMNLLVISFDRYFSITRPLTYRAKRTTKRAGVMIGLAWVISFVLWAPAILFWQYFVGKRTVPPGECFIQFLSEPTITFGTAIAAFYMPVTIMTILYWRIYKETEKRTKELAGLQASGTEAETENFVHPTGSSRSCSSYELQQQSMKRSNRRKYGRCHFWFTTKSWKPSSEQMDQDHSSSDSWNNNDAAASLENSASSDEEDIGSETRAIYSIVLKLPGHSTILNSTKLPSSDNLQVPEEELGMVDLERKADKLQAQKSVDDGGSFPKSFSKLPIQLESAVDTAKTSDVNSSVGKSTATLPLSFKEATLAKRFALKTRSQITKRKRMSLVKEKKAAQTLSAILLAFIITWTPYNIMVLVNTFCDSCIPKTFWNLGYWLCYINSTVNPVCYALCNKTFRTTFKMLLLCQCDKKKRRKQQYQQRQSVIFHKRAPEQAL

O=C(N1CC2(CC[C@@H](N3CCC(c4cc(F)ccc4C4CCOCC4)CC3)C2)C1)C1(F)CC1 (single isomer, unassigned) [Example 9L, (R)-(6-(4-(5-fluoro-2-(tetrahydro-2H-pyran-4-yl)phenyl)piperidin-1-yl)-2-azaspiro[3.4]octan-2-yl)(1-fluorocyclopropyl)methanone or (S)-(6-(4-(5-fluoro-2-(tetrahydro-2H-pyran-4-yl)phenyl)piperidin-1-yl)-2-azaspiro[3.4]octan-2-yl)(1-fluorocyclopropyl)methanone]
M3 FDSS PA [1]: 0%
EC50 [1]: > 25 µM
M5 FDSS PA [2]: 0%
EC50 [2]: > 25 µM
M2 FDSS PA [3]: 0%

Fc1cncc(N2CC3(CC[C@@H](N4CCC(c5cc(F)ccc5OC5CCOCC5)CC4)C3)C2)c1 (single isomer, unassigned) [Example 10A, (R)-6-(4-(5-fluoro-2-((tetrahydro-2H-pyran-4-yl)oxy)phenyl)piperidin-1-yl)-2-(5-fluoropyridin-3-yl)-2-azaspiro[3.4]octane or (S)-6-(4-(5-fluoro-2-((tetrahydro-2H-pyran-4-yl)oxy)phenyl)piperidin-1-yl)-2-(5-fluoropyridin-3-yl)-2-azaspiro[3.4]octane]
M3 FDSS PA [1]: 0%
EC50 [1]: > 25 µM
M5 FDSS PA [2]: 0%
EC50 [2]: > 25 µM
M2 FDSS PA [3]: 42%

Fc1cncc(N2CC3(CC[C@@H](N4CCC(c5cc(F)ccc5OC5CCOCC5)CC4)C3)C2)c1 (single isomer, unassigned) [Example 10B, (R)-6-(4-(5-fluoro-2-((tetrahydro-2H-pyran-4-yl)oxy)phenyl)piperidin-1-yl)-2-(5-fluoropyridin-3-yl)-2-azaspiro[3.4]octane or (S)-6-(4-(5-fluoro-2-((tetrahydro-2H-pyran-4-yl)oxy)phenyl)piperidin-1-yl)-2-(5-fluoropyridin-3-yl)-2-azaspiro[3.4]octane]
M3 FDSS PA [1]: 0%
EC50 [1]: > 25 µM
M5 FDSS PA [2]: 0%
EC50 [2]: > 25 µM
M2 FDSS PA [3]: 31%
EC50 [3]: 14.4 µM

Fc1ccc(C2CCOCC2)c(C2CCN([C@@H]3CCC4(C3)CN(c3cncnc3)C4)CC2)c1 (single isomer, unassigned) [Example 10C, (R)-6-(4-(5-fluoro-2-(tetrahydro-2H-pyran-4-yl)phenyl)piperidin-1-yl)-2-(pyrimidin-5-yl)-2-azaspiro[3.4]octane or (S)-6-(4-(5-fluoro-2-(tetrahydro-2H-pyran-4-yl)phenyl)piperidin-1-yl)-2-(pyrimidin-5-yl)-2-azaspiro[3.4]octane]
M3 FDSS PA [1]: 0%
EC50 [1]: > 25 µM
M5 FDSS PA [2]: 0%
EC50 [2]: > 25 µM
M2 FDSS PA [3]: 30%
EC50 [3]: 0.035 µM

Fc1ccc(C2CCOCC2)c(C2CCN([C@@H]3CCC4(C3)CN(c3cncnc3)C4)CC2)c1 (single isomer, unassigned) [Example 10D, (R)-6-(4-(5-fluoro-2-(tetrahydro-2H-pyran-4-yl)phenyl)piperidin-1-yl)-2-(pyrimidin-5-yl)-2-azaspiro[3.4]octane or (S)-6-(4-(5-fluoro-2-(tetrahydro-2H-pyran-4-yl)phenyl)piperidin-1-yl)-2-(pyrimidin-5-yl)-2-azaspiro[3.4]octane]
M3 FDSS PA [1]: 0%
EC50 [1]: > 25 µM
M5 FDSS PA [2]: 0%
EC50 [2]: > 25 µM
M2 FDSS PA [3]: 11%
EC50 [3]: 0.506 µM

Fc1ccc(OC2CC3(COC3)C2)c(C2CCN([C@@H]3CCC4(C3)CN(c3cncnc3)C4)CC2)c1 (single isomer, unassigned) [Example 10E, (R)-6-(4-(2-((2-oxaspiro[3.3]heptan-6-yl)oxy)-5-fluorophenyl)piperidin-1-yl)-2-(pyrimidin-5-yl)-2-azaspiro[3.4]octane or (S)-6-(4-(2-((2-oxaspiro[3.3]heptan-6-yl)oxy)-5-fluorophenyl)piperidin-1-yl)-2-(pyrimidin-5-yl)-2-azaspiro[3.4]octane]
M3 FDSS PA [1]: 0%
EC50 [1]: > 25 µM
M5 FDSS PA [2]: 0%
EC50 [2]: > 25 µM
M2 FDSS PA [3]: 11%
EC50 [3]: 3.99 µM

Fc1ccc(OC2CC3(COC3)C2)c(C2CCN([C@@H]3CCC4(C3)CN(c3cncnc3)C4)CC2)c1 (single isomer, unassigned) [Example 10F, (R)-6-(4-(2-((2-oxaspiro[3.3]heptan-6-yl)oxy)-5-fluorophenyl)piperidin-1-yl)-2-(pyrimidin-5-yl)-2-azaspiro[3.4]octane or (S)-6-(4-(2-((2-oxaspiro[3.3]heptan-6-yl)oxy)-5-fluorophenyl)piperidin-1-yl)-2-(pyrimidin-5-yl)-2-azaspiro[3.4]octane]
M3 FDSS PA [1]: 0%
EC50 [1]: > 25 µM
M5 FDSS PA [2]: 0%
EC50 [2]: > 25 µM
M2 FDSS PA [3]: 0%

Fc1ccc(OC2CCOCC2)c(C2CCN([C@@H]3CCC4(C3)CN(c3cncnc3)C4)CC2)c1 (single isomer, unassigned) [Example 10G, (R)-6-(4-(5-fluoro-2-((tetrahydro-2H-pyran-4-yl)oxy)phenyl)piperidin-1-yl)-2-(pyrimidin-5-yl)-2-azaspiro[3.4]octane or (S)-6-(4-(5-fluoro-2-((tetrahydro-2H-pyran-4-yl)oxy)phenyl)piperidin-1-yl)-2-(pyrimidin-5-yl)-2-azaspiro[3.4]octane]
M3 FDSS PA [1]: 0%
EC50 [1]: > 25 µM
M5 FDSS PA [2]: 0%
EC50 [2]: > 25 µM
M2 FDSS PA [3]: 0%

Fc1ccc(OC2CCOCC2)c(C2CCN([C@@H]3CCC4(C3)CN(c3cncnc3)C4)CC2)c1 (single isomer, unassigned) [Example 10H, (R)-6-(4-(5-fluoro-2-((tetrahydro-2H-pyran-4-yl)oxy)phenyl)piperidin-1-yl)-2-(pyrimidin-5-yl)-2-azaspiro[3.4]octane or (S)-6-(4-(5-fluoro-2-((tetrahydro-2H-pyran-4-yl)oxy)phenyl)piperidin-1-yl)-2-(pyrimidin-5-yl)-2-azaspiro[3.4]octane]
M3 FDSS PA [1]: 0%
EC50 [1]: > 25 µM
M5 FDSS PA [2]: 0%
EC50 [2]: > 25 µM
M2 FDSS PA [3]: 0%

COc1ccccc1C1CCN([C@H]2CCC3(C2)CN(c2ncco2)C3)CC1 (single isomer, unassigned) [Example 10I, S)-2-(6-(4-(2-methoxyphenyl)piperidin-1-yl)-2-azaspiro[3.4]octan-2-yl)oxazole or (R)-2-(6-(4-(2-methoxyphenyl)piperidin-1-yl)-2-azaspiro[3.4]octan-2-yl)oxazole]
M3 FDSS PA [1]: 0%
EC50 [1]: > 25 µM
M5 FDSS PA [2]: 0%
EC50 [2]: > 25 µM
M2 FDSS PA [3]: 0%

COc1ccccc1C1CCN([C@H]2CCC3(C2)CN(c2ncco2)C3)CC1 (single isomer, unassigned) [Example 10J, (S)-2-(6-(4-(2-methoxyphenyl)piperidin-1-yl)-2-azaspiro[3.4]octan-2-yl)oxazole or (R)-2-(6-(4-(2-methoxyphenyl)piperidin-1-yl)-2-azaspiro[3.4]octan-2-yl)oxazole]
M3 FDSS PA [1]: 0%
EC50 [1]: > 25 µM
M5 FDSS PA [2]: 0%
EC50 [2]: 14.1 µM
M2 FDSS PA [3]: 42%

FC(F)(F)Oc1ccccc1C1CCN([C@@H]2CCC3(C2)CN(c2ncco2)C3)CC1 (single isomer, unassigned) [Example 10K, (R)-2-(6-(4-(2-(trifluoromethoxy)phenyl)piperidin-1-yl)-2-azaspiro[3.4]octan-2-yl)oxazole or (S)-2-(6-(4-(2-(trifluoromethoxy)phenyl)piperidin-1-yl)-2-azaspiro[3.4]octan-2-yl)oxazole]
M3 FDSS PA [1]: 0%
EC50 [1]: > 25 µM
M5 FDSS PA [2]: 0%
EC50 [2]: > 25 µM
M2 FDSS PA [3]: 0%
